The term MIC denotes the lowest concentration that inhibits growth of the organism.

Values after ≈ are worked out from the molar mass of the structure shown.

This is an account of results in patent publication US8021846B2, “Method for determining azole resistance in Candida glabrata” (Medical Diagnostic Laboratories, LLC, priority 2008, dated 2011).

The test concerns Candida glabrata clinical isolates. Description: Microbroth dilution assay (CLSI M27-A2) of azole susceptibility of clinical isolates.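 On all read-outs here: growth of C. glabrata cervicovaginal isolates in 96-well plates, absorbance at 620 nm minus medium background, 35 °C for 24 and 48 h, DMSO ≦0.5%.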 The note with it: for % of isolates S (susceptible) / No. of isolates S (susceptible): 175 C. glabrata cervicovaginal clinical isolates, S = MIC ≦8 μg/ml fluconazole, ≦1 μg/ml voriconazole, proposed breakpoints for voriconazole and miconazole; for MIC: Nakaseomyces glabratus. On the technique in general: In broth dilution the organism is exposed to a series of concentrations in liquid medium.

Description: One hundred seventy-five (175) Candida glabrata clinical isolates were retrieved from cervicovaginal swabs. Clinical isolates were obtained from cervicovaginal swabs of female patients suspected of having vulvovaginal candidiasis (WC) from across the United States. Candida glabrata PCR positive swabs were struck out on Candida CHROMagar, and individual Candida glabrata colonies were isolated for susceptibility testing using the microbroth dilution assay according to the Clinical and Laboratory Standards Institute protocol. Susceptibilities of these isolates to triazole anti-fungal drugs (e.g., fluconazole, voriconazole, and miconazole) were determined.
The microbroth dilution assays were performed using RPMI 1640 (minus glutamine, and 0.165 M MOPS to pH 7.0) (Sigma, St. Louis, Mo.). […] Drugs were obtained from the following sources: fluconazole (LKT Laboratories, St. Paul, Minn.), miconazole (MP Biomedicals, Inc., Solon, Ohio) and voriconazole (Pfizer, New York, N.Y.). All drugs were dissolved in dimethyl sulfoxide (DMSO) to a final concentration of ≦0.5% in all experiments at which C. glabrata growth was not affected.
Protocols for microbroth dilution assays (i.e., susceptibility testing) was performed by MBD according to the Clincial and Laboratory Standards Institute (CLSI) guidelines outlined in M27-A2. Azole antifungals and concentrations tested were fluconazole (2 to 128 μg/ml), voriconazole (8 to 0.125 μg/ml), and miconazole (8 to 0.125 μg/ml). Candida glabrata isolates were growth in RPMI 1640 media (minus glutamine, plus 2% glucose, and 0.165M MOPS to pH 7.0) to mid-log phase and cultures were diluted to 5×10^3 cells/ml in RPMI 1640 medium. Aliquots of 100 μl were distributed to wells of a 96-well flat-bottom plate, except for row A which received 200 μl. Drug was added to row A at the desired concentration (fluconazole, 128 μg/ml, voriconazole 8 μg/ml, and miconazole 8 μg/ml) and then serially two-fold diluted to rows B through G; row H served as a drug-free control. Plates were incubated at 35° C. for 24 and 48 hours. Absorbance at 620 nm was read with a microplate reader (Beckman Coulter, Inc., Fullerton, Calif.); background due to medium was subtracted from all readings.
The MIC was defined as the lowest concentration inhibiting growth at least 80% relative to the drug-free control.

Turning to `Clc1ccc(COC(Cn2ccnc2)c2ccc(Cl)cc2Cl)c(Cl)c1` (stereo not shown) [Miconazole, miconazole], the “% of isolates S (susceptible)” value is 100.0% and the “No. of isolates S (susceptible)” value is on record as 175. In addition, the “Susceptibility of the clinical isolates (in words)” value (175 C. glabrata clinical isolates) is reported as “All of the clinical isolates were susceptible”.
Turning to `OC(Cn1cncn1)(Cn1cncn1)c1ccc(F)cc1F` [Fluconazole, fluconazole], the “% of isolates S (susceptible)” value is on record as 30.9% and the “No. of isolates S (susceptible)” value is 54. In addition, the MIC (isolates of swab S1 (susceptible group)) was determined as 8 µg/mL (≈ 26.1 µM). For the same compound, the MIC (isolates of swab S2 (susceptible group)) is 4 µg/mL (≈ 13.1 µM). Under “isolates of swab S3 (susceptible group)”, the MIC was 4 µg/mL (≈ 13.1 µM). The compound also gave an MIC (isolates of swab S4 (susceptible group)) of 2 µg/mL (≈ 6.53 µM). The same compound came in with an MIC (isolates of swab S5 (susceptible group)) of 4 µg/mL (≈ 13.1 µM). Under “isolates of swab S6 (susceptible group)”, this compound showed an MIC of 4 µg/mL (≈ 13.1 µM). Where the note is “isolates of swab S7 (susceptible group)”, this compound returned an MIC of 4 µg/mL (≈ 13.1 µM). The compound further yielded a minimum inhibitory concentration (MIC) (isolates of swab S8 (susceptible group)) of 4 µg/mL (≈ 13.1 µM). In addition, the MIC (isolates of swab S9 (susceptible group)) stood at 2 µg/mL (≈ 6.53 µM). For the same compound, the MIC (isolates of swab S11 (S-DD group)) is 16 µg/mL (≈ 52.2 µM). This compound also showed an MIC (isolates of swab S12 (S-DD group)) of 16 µg/mL (≈ 52.2 µM). This compound returned an MIC (isolates of swab S13 (S-DD group)) of 16 µg/mL (≈ 52.2 µM). For the setting “isolates of swab S14 (S-DD group)”, this compound yielded a minimal inhibitory concentration (MIC) of 16 µg/mL (≈ 52.2 µM). The compound also gave an MIC (isolates of swab S15 (S-DD group)) of 32 µg/mL (≈ 104 µM). Moreover, the MIC (isolates of swab S16 (S-DD group)) was determined as 16 µg/mL (≈ 52.2 µM). For the setting “isolates of swab S17 (S-DD group)”, this compound showed a minimal inhibitory concentration (MIC) of 16 µg/mL (≈ 52.2 µM). This compound also came in with an MIC (isolates of swab S18 (S-DD group)) of 16 µg/mL (≈ 52.2 µM). This compound also gave an MIC (isolates of swab S19 (S-DD group)) of 32 µg/mL (≈ 104 µM). Moreover, for the setting “isolates of swab S20 (S-DD group)”, the MIC was determined as 32 µg/mL (≈ 104 µM). Where the note is “isolates of swab S21 (resistant group)”, this compound displayed an MIC of 128 µg/mL (≈ 418 µM). The MIC (isolates of swab S22 (resistant group)) is 128 µg/mL (≈ 418 µM). Under “isolates of swab S23 (resistant group)”, this compound returned an MIC of 128 µg/mL (≈ 418 µM). Further, under “isolates of swab S24 (resistant group)”, the MIC turned out to be 128 µg/mL (≈ 418 µM). The MIC (isolates of swab S25 (resistant group)) amounted to 64 µg/mL (≈ 209 µM). The same compound came in with an MIC (isolates of swab S26 (resistant group)) of 128 µg/mL (≈ 418 µM). For the setting “isolates of swab S27 (resistant group)”, this compound displayed an MIC of 64 µg/mL (≈ 209 µM). Further, for the setting “isolates of swab S28 (resistant group)”, the minimum inhibitory concentration (MIC) was 128 µg/mL (≈ 418 µM). For the same compound, the minimum inhibitory concentration (MIC) (isolates of swab S29 (resistant group)) amounted to 64 µg/mL (≈ 209 µM). The minimal inhibitory concentration (MIC) (swab S10, the single resistant isolate) was determined as 128 µg/mL (≈ 418 µM). The MIC (swab S10, the two susceptible isolates) amounted to 8 µg/mL (≈ 26.1 µM).
For `C[C@@H](c1ncncc1F)[C@](O)(Cn1cncn1)c1ccc(F)cc1F` [Voriconazole, voriconazole], the “% of isolates S (susceptible)” value is recorded as 62.3% and the “No. of isolates S (susceptible)” value is on record as 109.
